Data: PubChem BioAssay AID1963958 (Molecular Pharmacology Branch, DTP, NCI, 2024)
Several values for one entry are separate records, joined by “and”; a condition that tells them apart may be missing. Equal entries are not always repeated.

System: MDA-MB-231 multicell spheroids, viability
Assay: Anticancer human tumor MDA-MB-231 cell line growth inhibition [PI3K];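 further: spheroids exposed to agents for seven days before reading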;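 on viability, T/C: percent of vehicle control luminescence with DMSO treated spheroids as 100%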
Conditions: for viability, T/C: stronger effect = lower value
From the text: Combinatorial screen of targeted agents with the PI3K inhibitors inavolisib, alpelisib, duvelisib, and copanlisib in multi-cell type tumor spheroids
A high-throughput screen of multi-cell type tumor spheroids was designed to identify active combinations of targeted small molecules and PI3K pathway inhibitors. Complex spheroids include a stromal component modeled by human endothelial cells (HUVEC) and fibroblasts modeled by human mesenchymal stem cells (MSCs). The concentration ranges selected for each drug and investigational agent were based upon clinically achievable concentrations if the clinical Cmax of the agent was known.
Compounds. The drugs and investigational agents: inavolisib (NSC800729), alpelisib (NSC765974), duvelisib (NSC772469), copanlisib (NSC816437), ipatasertib (NSC767898), afuresertib (NSC778305), talazoparib (NSC767125), sapanisertib (NSC764658), selumetinib (NSC741078), tovorafenib (DAY101, NSC766906), vemurafenib (NSC761431), ravoxertinib (NSC781343), sotorasib (NSC818433), MRTX1133 (NSC 836407), abemaciclib (NSC 768073), palbociclib (NSC758247), venetoclax (NSC 766270), SY5609 (NSC837396), enzalutamide (NSC755605), and darolutamide (NSC825331), were obtained from the National Cancer Institute (NCI) Developmental Therapeutics Program Chemical Repository. The FDA-approved anticancer drug set is available from the NCI Developmental Therapeutics Program. […] The stock solutions were prepared in dimethyl sulfoxide (DMSO, Sigma-Aldrich, St. Louis, MO, cat. D2650) at 800-fold the tested concentration and stored at -70 degrees C prior to their use. All drugs and investigational agents were tested over a range starting from a high concentration at or near the clinical Cmax and decreasing in half-log increments. If the clinical Cmax for an agent had not been determined, the highest concentration tested was 10 microM.
Cell Culture. All cells were maintained in an incubator at 37 degrees C and 5% CO2 with 95% humidity. The PDC lines were cultured according to standard operating procedures established by the NCI PDMR (https://pdmr.cancer.gov/sops/default.htm). All PDCs were thawed and cultured in Matrigel-coated flasks prepared with a working solution of 1X Ham's F-12 nutrient mix, without supplementation (Invitrogen, Waltham, MA, cat. 11765054), 100 U/mL penicillin-streptomycin (Invitrogen, cat. 15140122), and 2.5% Matrigel (Corning Inc., Corning, NY, cat. 354248) for the first three passages. The 354836-022-R-J1-PDC, 475296-252-R-J1-PDC, and 997726-040-R-J2-PDC lines were cultured in 6A media, which includes advanced DMEM/F-12 (Thermo Fisher Scientific, cat. 12634028), 10 mM HEPES (Thermo Fisher Scientific, cat. 15630080), 1X GlutaMAX supplement (Thermo Fisher Scientific, cat. 35050061), 0.1 mg/mL primocin (InvivoGen, San Diego, CA, cat. ant-pm-2), 10% defined fetal bovine serum, heat inactivated (HyClone Laboratories Inc., Logan, UT, cat. SH30070.03HI), 50% L-WRN conditioned media (ATCC, cat. CRL-3276), 1.25 mM N-Acetyl-L-cysteine (Sigma-Aldrich, cat. A9165), 10 mM nicotinamide (Sigma-Aldrich, cat. N0636), 1X B-27 supplement (Thermo Fisher Scientific, cat. 17504044), 1X N-2 supplement (Thermo Fisher Scientific, cat. 17502048), and 10 microM Y-27632 dihydrochloride (Tocris Bioscience, Bristol, United Kingdom, cat. 1254). The 624824-186-R-J2-PDC line was cultured in 6C/Colon 1B media, which includes all 6A media components plus 50 ng/mL human EGF recombinant protein (Thermo Fisher Scientific, cat. PHG0311). […]

[1] = compound alone, run of 05/08/2023

Row | Structure (SMILES) | viability, T/C (compound 0.0316 µM) | viability, T/C (compound 0.1 µM) | viability, T/C (compound 0.316 µM) | viability, T/C (compound 3.16 µM) | viability, T/C (compound 10 µM) | IC50 (curve of compound) | viability, T/C (compound 0.00316 µM) | viability, T/C (compound 0.01 µM) | viability, T/C (compound 1 µM) | other results
1 | C=CC(=O)N1CCN(c2nc(=O)n(-c3c(C)ccnc3C(C)C)c3nc(-c4c(O)cccc4F)c(F)cc23)C(C)C1 (configuration not stated) | 109% [middle of 4 runs] | 101% [middle of 4 runs] | 124% [middle of 4 runs] | 136% [middle of 4 runs] | 127% [middle of 4 runs] | > 10000 nM | – | – | – | –
2 | CC(=O)c1c(C)c2cnc(Nc3ccc(N4CCNCC4)cn3)nc2n(C2CCCC2)c1=O | 79.7% [middle of 4 runs] | 49.9% [middle of 4 runs] | – | – | – | 98 nM and 91.6 nM and > 100 nM | 101% [middle of 4 runs] | 90% [middle of 4 runs] | – | viability, T/C (compound 0.000316 µM): 105% [middle of 4 runs]; viability, T/C (compound 0.001 µM): 104% and 100% and 103% (2×)
3 | CC(C)NCC(C(=O)N1CCN(c2ncnc3c2C(C)CC3O)CC1)c1ccc(Cl)cc1 (configuration not stated) | 114% [middle of 4 runs] | 102% [middle of 4 runs] | 97.3% [middle of 4 runs] | 70.9% [middle of 4 runs] | 49.8% [middle of 4 runs] | > 10000 nM and 8950 nM and 7840 nM | – | – | 87.9% [middle of 4 runs] | –
4 | CC(C)n1nc(-c2ccc3oc(N)nc3c2)c2c(N)ncnc21 | 67.4% [middle of 4 runs] | 38.8% [middle of 4 runs] | – | – | – | 66.7 nM [middle of 4 runs] | 104% and 101% (2×) and 97.3% | 84.7% [middle of 4 runs] | – | viability, T/C (compound 0.000316 µM): 107% [middle of 4 runs]; viability, T/C (compound 0.001 µM): 99.7% [middle of 4 runs]
5 | CC(Cn1ccc(-c2ccc(C#N)c(Cl)c2)n1)NC(=O)c1cc(C(C)O)[nH]n1 (configuration not stated) | 106% [middle of 4 runs] | 99% [middle of 4 runs] | 111% [middle of 4 runs] | 100% [middle of 4 runs] | 92.5% [middle of 4 runs] | > 10000 nM | – | – | 107% [middle of 4 runs] | –
6 | CC(Nc1ccc2c(c1)OCCn1cc(N3C(=O)OCC3C(F)F)nc1-2)C(N)=O (configuration not stated) | 81.9% [middle of 8 runs] | 72.1% [middle of 8 runs] | 64.8% [middle of 8 runs] | – | – | – | 103% [middle of 8 runs] | 96.1% [middle of 8 runs] | 64.2% [middle of 8 runs] | IC50 [1]: > 1000 nM
7 | CC(Nc1ncnc2nc[nH]c12)c1cc2cccc(Cl)c2c(=O)n1-c1ccccc1 (configuration not stated) | 105% [middle of 8 runs] | 100% [middle of 8 runs] | 95.5% [middle of 8 runs] | 63.9% [middle of 8 runs] | 50.6% [middle of 8 runs] | – | – | – | 82.7% [middle of 8 runs] | –
8 | CC1(C)CCC(CN2CCN(c3ccc(C(=O)NS(=O)(=O)c4ccc(NCC5CCOCC5)c([N+](=O)[O-])c4)c(Oc4cnc5[nH]ccc5c4)c3)CC2)=C(c2ccc(Cl)cc2)C1 | 108% [middle of 4 runs] | 103% [middle of 4 runs] | 109% [middle of 4 runs] | 113% (2×) and 112% and 119% | – | – | – | – | 113% [middle of 4 runs] | –
9 | CC1(C)CCC(Nc2ncc(C(F)(F)F)c(-c3c[nH]c4c(P(C)(C)=O)c(C#N)ccc34)n2)CN1 (configuration not stated) | 44.8% [middle of 4 runs] | 42.5% [middle of 4 runs] | 44.1% [middle of 4 runs] | 56.4% [middle of 4 runs] | 5.5% [middle of 4 runs] | 31.6 nM and 56.2 nM | – | – | 54.3% [middle of 4 runs] | –
10 | CCCS(=O)(=O)Nc1ccc(F)c(C(=O)c2c[nH]c3ncc(-c4ccc(Cl)cc4)cc23)c1F | 113% [middle of 4 runs] | 111% [middle of 4 runs] | 104% [middle of 4 runs] | 68.9% [middle of 4 runs] | 34.8% [middle of 4 runs] | 5.82 µM [middle of 4 runs] | – | – | 89.3% [middle of 4 runs] | –
11 | CCN1CCN(Cc2ccc(Nc3ncc(F)c(-c4cc(F)c5nc(C)n(C(C)C)c5c4)n3)nc2)CC1 | 87% [middle of 4 runs] | 67% and 57.2% and 58.3% (2×) | 56.5% and 44.8% and 49.5% (2×) | – | – | – | 102% [middle of 4 runs] | 97.1% [middle of 4 runs] | 49.3% [middle of 4 runs] | –
12 | CNC(=O)c1ccc(N2C(=S)N(c3ccc(C#N)c(C(F)(F)F)c3)C(=O)C2(C)C)cc1F | 110% [middle of 4 runs] | 111% [middle of 4 runs] | 113% [middle of 4 runs] | 98.3% [middle of 4 runs] | 88.7% [middle of 4 runs] | > 10000 nM | – | – | 107% [middle of 4 runs] | –
13 | COc1c(OCCCN2CCOCC2)ccc2c3n(c(=NC(=O)c4cnc(N)nc4)nc12)CCN3 | 61.3% [middle of 8 runs] | 46.3% [middle of 8 runs] | 31.6% [middle of 8 runs] | – | – | – | 99.7% [middle of 8 runs] | 79.4% [middle of 8 runs] | 26% [middle of 8 runs] | IC50 (compound alone, run of 05/09/2023): 73.8 nM [middle of 8 runs]
14 | C[C@@H](NC(=O)c1ncnc(N)c1Cl)c1ncc(C(=O)Nc2cc(C(F)(F)F)c(Cl)cn2)s1 | 139% [middle of 4 runs] | – | – | 77.3% [middle of 4 runs] | 64.8% [middle of 4 runs] | > 10000 nM | – | – | – | –
15 | Cc1nc(NC(=O)N2CCCC2C(N)=O)sc1-c1ccnc(C(C)(C)C(F)(F)F)c1 (configuration not stated) | 98.2% [middle of 8 runs] | 88.9% [middle of 8 runs] | 75.4% [middle of 8 runs] | 64.6% [middle of 8 runs] | 63% [middle of 7 runs] | – | – | – | 71.2% [middle of 8 runs] | IC50 [1]: > 10000 nM
16 | Cn1cnc2c(F)c(Nc3ccc(Br)cc3Cl)c(C(=O)NOCCO)cc21 | – | – | – | – | – | 431 nM [middle of 4 runs] | – | – | – | viability, T/C (compound 0.00949 µM): 72.7% [middle of 4 runs]; viability, T/C (compound 0.03 µM): 64.9% [middle of 4 runs]; viability, T/C (compound 0.0949 µM): 59.5% and 57.3% (2×) and 57.6%; viability, T/C (compound 0.3 µM): 53.2% [middle of 4 runs]; viability, T/C (compound 0.949 µM): 47.3% [middle of 4 runs]; viability, T/C (compound 3 µM): 34.5% [middle of 4 runs]
17 | Cn1nccc1Nc1nccc(-c2ccn(C(CO)c3ccc(Cl)c(F)c3)c(=O)c2)n1 (configuration not stated) | 87% [middle of 4 runs] | 70.7% [middle of 4 runs] | 61.5% [middle of 4 runs] | 41.8% [middle of 4 runs] | 30.1% [middle of 4 runs] | 905 nM [middle of 4 runs] | – | – | 50.8% and 49.5% and 49.4% (2×) | –
18 | Cn1ncnc1[C@H]1c2n[nH]c(=O)c3cc(F)cc(c23)N[C@@H]1c1ccc(F)cc1 | 94% [middle of 4 runs] | 88.7% [middle of 4 runs] | – | – | – | > 100 nM | 95.2% [middle of 4 runs] | 92.4% [middle of 4 runs] | – | viability, T/C (compound 0.000316 µM): 114% and 106% and 107% (2×)
